Here are results for 1 molecule from patent US11859252B2, “Diagnostic and therapeutic methods for cancer” (Genentech, Inc., priority 2017, dated 2024).

For data set [1], the system named is A549 cells. The data set is described as follows: Apoptosis: cleaved PARP Western blot and Annexin V/propidium iodide flow cytometry. It counts as cell-based. The following applies: AZ-628 combined with cobimetinib; 48 hours; FIG. 2D-2E. Here is the method:
(§1) Cells lysed in lysis buffer (0.5% NP40, 20 mM Tris, pH 7.5, 137 mM NaCl, 10% glycerol, 1 mM EDTA) plus protease inhibitor mixture-complete mini (Roche Applied Science, 11836170001) and phosphatase inhibitor mix (Thermo, 78426). Lysates were centrifuged at 15,000 rpm for 10 minutes and the protein concentration determined using BCA (Thermo, 23227). Equal amounts of protein were subjected to SDS-PAGE NuPAGE 4-12% Bis-Tris Gel (Novex, WG-1403) and transferred to nitrocellulose membrane (BioRad, 170-4159). After blocking in blocking buffer (Li-Cor, 927-40000), membranes were incubated with the indicated primary antibodies and analyzed either by the addition of secondary antibodies IRDye 680LT Goat anti-Mouse IgG (H+L) (Li-Cor, 926-68050) or IRDye 800CW goat anti-Rabbit IgG (H+L) (Li-Cor, 926-32211). The membranes were visualized on the LiCor Odyssey CLx Scanner.
For orientation: Immunoblotting shows a protein as a band on a membrane.

For data set [2], the system named is SW48 isogenic cell line. Kind of data set: SW48 isogenic KRAS knock-in cells, crystal violet and pERK Western blot. The following applies: AZ-628 starting at 0.1 μM, cobimetinib 250 nM; FIGS. 6F-6G. It counts as cell-based. Here is the method:
(§2) Cells were plated in duplicate in 6-well plates at 10,000 cells/well, allowed to attach overnight and treated for 8 days with the indicated compounds. Media with appropriate compounds was replenished every 72 hours. At 8 days cells were rinsed once with PBS, fixed and stained with crystal violet solution (Sigma Aldrich, HT90132) for 20 minutes and washed with water.
as §1

In data set [3] the test system is A549 cells. The data set is described as follows: Clonogenic (colony growth) assay. It counts as cell-based. Here is the method: as §2
Data set [4] concerns NCI-H2122 lung xenograft tumor. The data set is described as follows: NCI-H2122 lung xenograft tumor model.
Procedure: The formulations were mixed well by vortexing before dosing. Test articles were stored in a refrigerator set to maintain a temperature range of 4° C.-7° C.
Only animals that appeared to be healthy and that were free of obvious abnormalities were used for each study. Tumor volumes were determined using digital calipers (Fred V. Fowler Company, Inc.) using the formula (L×W×W)/2. […] Mice were weighed twice a week using a standard scale.
The test system of data set [5] is 322 cell lines (pancreas, lung, colorectal, skin, ovary and blood). The data set is described as follows: 322 cell line screen, AZ-628 and cobimetinib single agents and co-dilution. It counts as cell-based. On the procedure:
(§3) Compounds were screened in nine-point dose response using a three-fold dilution. Cells were seeded into 384-well plates 24 hours prior to compound addition. Cells were then incubated with compound for 72 hours or 120 hours before assaying viability (CellTiter-Glo, Promega). Assays were performed in biological triplicate. Cells were incubated (37° C., 5% CO2) in RPMI-1640, 2.5% FBS (72 hour assay) or 5% FBS (120 hour assay), and 2 mM glutamine throughout the assay. The reported IC50 and mean viability metrics are as follows: IC50 is the dose at which the estimated inhibition is 50% relative to untreated wells (i.e., absolute IC50). Mean viability is equivalent to the area under the log-dose/viability curve divided by the total number of tested doses.
(§4) For combination synergy studies, cells were plated in 384-well plates (Corning) and treated with varying concentrations of compound, either alone or in combination for 72 hours. Cell viability was determined using CellTiter-Glo Luminescent Cell Viability Assay (Promega, G7573). Synergistic effects were determined using the Bliss independence analysis methods (Greco et al. Pharmacol. Rev. 47: 331-385, 1995; Chou and Talalay. Adv. Enzyme Regul. 22:27-55, 1984; Chou. Cancer Res. 70: 440-446, 2010; Bliss. Ann. Appl. Biol. 25: 31, 1939).

Data set [6] deals with NRAS mutant melanoma cell line. The data set is described as follows: Viability of NRAS mutant melanoma versus BRAF-V600E and wild-type lines. The class given is cell-based. Here is the method:
Compounds were screened in nine-point dose response using a three-fold dilution. Cells were seeded into 384-well plates 24 hours prior to compound addition. Cells were then incubated with compound for 72 hours or 120 hours before assaying viability (CellTiter-Glo, Promega). Assays were performed in biological triplicate. […] Mean viability is equivalent to the area under the log-dose/viability curve divided by the total number of tested doses.

Data set [7] concerns DUSP6 and SPRY4. The data set is described as follows: RNA sequencing of MAPK transcriptional targets. It counts as cell-based. The following applies: 0.1 μM AZ-628 combined with cobimetinib; six hours; four KRAS mutant lung cancer cell lines; FIG. 2C. Here is the method: Cells were seeded overnight and treated with AZ-628 and cobimetinib either singly (0.1 μM) or in combination (0.1 μM each) for 6 hours. Control cells were treated with DMSO (0.2% final concentration). Total RNA was extracted as per manufacturer's protocol using RNEasy mini kits with on-column DNAse digestion (Qiagen #74106 and #79254). Quality control of samples was done to determine RNA quantity and quality prior to their processing by RNA-seq. The concentration of RNA samples was determined using NanoDrop 8000 (Thermo Scientific) and the integrity of RNA was determined by Fragment Analyzer (Advanced Analytical Technologies). 0.5 μg of total RNA was used as an input material for library preparation using TruSeq RNA Sample Preparation Kit v2 (Illumina). Size of the libraries was confirmed using 2200 TapeStation and High Sensitivity D1000 screen tape (Agilent Technologies) and their concentration was determined by qPCR based method using Library quantification kit (KAPA). The libraries were multiplexed and then sequenced on Illumina HiSeq2500 (Illumina) to generate 30M of single-end 50 base pair reads.
Reads were mapped to the hg19 genome using RefSeq gene models with the aligner GSNAP. […] Significance for linear model terms was determined by moderated t-tests as implemented in the limma software.

The test system of data set [8] is panel of 213 tumor cell lines. Kind of data set: 213 cell line panel, co-diluted combinations with pictilisib. The class given is cell-based. The following applies: 3 days, FIG. 7A. Here is the method:
as §3, §4

The test system of data set [9] is pMEK, pERK, pRSK, pAKT. Kind of data set: Immunoblot of pathway markers after compound treatment. It counts as cell-based. The following applies: A549. Here is the method:
as §1

Each structure is given as a SMILES string. Entries after “also recorded” stand apart in the source; their conditions may differ.

For the molecule `Cc1ccc(NC(=O)c2cccc(C(C)(C)C#N)c2)cc1Nc1ccc2ncn(C)c(=O)c2c1` [AZ-628], the induction of apoptosis entry in data set [1] is recorded as “significant induction of cell apoptosis; also recorded: increased cleaved PARP”. The “synergy with cobimetinib by KRAS knock-in” value in [2] is “displayed greater synergy than KRAS-G12D and KRAS-G12C knock-in cells; also recorded: greater in KRAS-G13D mutant SW48 cells compared to KRAS-G12D or KRAS-G12C mutant SW48 cells”. Further, the “single-agent effect on cell growth” value in [3] (8-day clonogenic, 50-100 nM cobimetinib, 100 nM AZ-628) is listed as “had little effect on cell growth on their own”. The “synergy with cobimetinib in colony formation” value in data set [3] (8 days, crystal violet, FIG. 2F, 5E) is given as “marked synergy”. Also, in data set [4] (NCI-H2122, AZ-628+GDC-0973, FIG. 3A), the “tumor growth, combination with cobimetinib” value is reported as “robust combination effect”. Besides, the “tolerability / body weight” value in [4] (NCI-H2122 xenograft mice, combination with cobimetinib, FIG. 3B) is given as “well tolerated in the mice, resulting in little or minimal changes in body weight post-treatment”. Also, the “association of combination sensitivity with KRAS-G13D” value in data set [5] (AZ-628 and cobimetinib, FIGS. 6A-6C) is “significant association between sensitivity to the RAF plus MEK inhibitor combination and presence of the G13D mutation; also recorded: KRAS-G13D mutant cell lines are more sensitive to the combination of RAF and MEK inhibition”. The “synergy score (positive Bliss excess) with cobimetinib by genotype” value in data set [5] (co-dilution with cobimetinib, 3 days, FIG. 5A) was “Significantly higher synergy scores were observed in KRAS and NRAS mutant cell lines compared to either BRAF-V600 mutants or wild-type; also recorded: greater synergy in RAS mutant (G12/G13/Q61) cell lines, and a subset of RAS/RAF wild-type cell lines relative to BRAF-V600 cell lines”. Besides, the “effect on mean viability, NRAS mutant vs BRAF-V600E” value in [6] (FIG. 8A) is “approximately equivalent effects on mean viability”. The “cell viability and 1050, NRAS mutant vs BRAF-V600E” value in data set [6] (separate study, FIGS. 8C and 8D) was “had an equivalent effect in NRAS mutant and BRAF-V600E mutant cell lines”. Besides, the “downregulation of DUSP6 and SPRY4” value in data set [7] is listed as “downregulation of these genes was more profound than expected if the effect of combining the two single agents was merely additive”. For the same molecule, the “synergy (positive Bliss excess) with pictilisib” value in data set [8] is “large general increased synergy in the AZ-628/pictilisib combination compared to the cobimetinib/pictilisib combination; also recorded: synergizes with pan-PI3K inhibitor, pictilisib (GDC-0941)”. Moreover, in data set [9] (AZ-628 combined with pictilisib, 24 hours, FIG. 7G), the “pMEK accumulation and signaling to ERK” value is “prevent the accumulation of pMEK and abrogate downstream signaling to ERK”. Moreover, in data set [9] (AZ-628 in combination with cobimetinib, FIG. 2B), the pAKT levels result is reported as “little observed impact on pAKT levels”. For the same molecule, the “MAPK pathway output (pMEK, pERK, pRSK)” value in data set [9] (RAF inhibitor 0.1-10 μM with or without fixed dose cobimetinib, 24 hours, FIG. 2B) is “only in combination with cobimetinib effectively inhibited MAPK pathway output”.
